Experimental data from PubChem BioAssay (NCI).
“And” between values parts separate entries of the source, which are not always exact repeats. Identical values can stand only once.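 Exposure lasted 48 hours, with cells grown in 96-well plates and compounds tested at five concentrations. The concentration for 50% growth inhibition is given as GI50. TGI is the concentration that stops growth completely.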

Experiments:
Test in all cases: NCI tumour cell line growth inhibition, 48 h
MALME-3M melanoma = tested on: MALME-3M melanoma
BT-549 breast = tested on: BT-549 breast
KM12 colon = tested on: KM12 colon
SR leukemia = tested on: SR leukemia
T-47D breast = tested on: T-47D breast
NCI-H522 lung = tested on: NCI-H522 lung

Row | Compound | TGI (MALME-3M melanoma) [µM] | TGI (BT-549 breast) [µM] | TGI (KM12 colon) [µM] | TGI (SR leukemia) [µM] | TGI (T-47D breast) [µM] | TGI (NCI-H522 lung) [µM] | GI50 (MALME-3M melanoma) [µM] | GI50 (BT-549 breast) [µM] | GI50 (KM12 colon) [µM] | GI50 (SR leukemia) | GI50 (T-47D breast) [µM] | GI50 (NCI-H522 lung) [µM]
1 | O=C1CC2OCC=C3CN4CCC5(C(=O)O)C(N1)C2C3CC45 (stereo unspecified) | > 100 | > 100 | > 100 | > 100 | > 100 | > 100 | – | – | – | – | – | –
2 | C=Cc1cc(OC)c2c(c1)c(=O)oc1c2cc(OC)c2c(O)ccc(C3OC(C(C)O)C(O)C3O)c21 (stereo unspecified) | 0.0366 | 0.0391 | 0.0499 | 0.00406 | 0.08 | 0.03 | 0.0107 | 0.00769 | 0.00674 | 4.83e-05 µM and 0.000209 µM | 0.00812 | 0.00475
3 | COc1ccc(/C=C/C(=O)c2ccc(Nc3nc(Nc4ccc(F)cc4)nc(Nc4ccc(F)cc4)n3)cc2)cc1 | 46.6 | 36.4 | 29.3 | 51.6 | 52.5 | 24.9 | 8.94 | 14 | 7.62 | 4.66 µM | 5.42 | 8.89
4 | Nc1ccn(C2CC3OCC3O2)c(=O)n1 (stereo unspecified) | – | > 100 | > 100 | > 100 | > 100 | > 100 | – | – | – | – | – | –
5 | CC(C)OP(=O)(OC(C)C)/C(C#N)=C/c1c[nH]c2ccccc12 | > 100 | 89.3 | > 100 | > 100 | > 100 | > 100 | – | – | – | – | – | –
6 | NC1=C(O)C(=O)C(c2c[nH]c3ccc(OCc4ccccc4)cc23)O1 (stereo unspecified) | > 100 | > 100 | > 100 | > 100 | > 100 | > 100 | – | – | – | – | – | –
7 | Cc1c(C2CCSc3ccccc3N2)sc2ccccc12 (stereo unspecified) | > 100 | > 100 | > 100 | – | > 100 | > 100 | – | – | – | – | – | –
8 | O=[N+]([O-])c1ccc2nc(-c3ccc(Cl)cc3)[nH]c2c1 | 63 | 64.6 | – | 79.9 | 55.7 | 30.5 | – | – | – | – | – | –
9 | CCCC(=O)OC(OC(=O)CCC)c1ccc([N+](=O)[O-])o1 | 40.3 | > 100 | > 100 | 53.1 | 61.5 | 28.9 | – | – | – | – | – | –
10 | O=C1C=CC(=O)c2c(O)c(N(CCCl)CCCl)c(Cl)c(O)c21 | 5.79 | > 7.26 | > 9.63 | > 10 | 6.57 | 6.01 | – | – | – | – | – | –
11 | CNC(=O)c1cc(-c2ccc(F)cc2)cc(-c2ccc(S(=O)(=O)N3CCCC3)cc2)c1N | > 25 | > 25 | > 25 | > 25 | > 25 | > 25 | > 25 | > 21.2 | 16.6 | > 25 µM | 10.5 | 22.3
12 | CCN(CC)CCNc1ccc([N+](=O)[O-])c2nc3ccc(OC)cc3c(N)c12 | 3.61 | 2.72 | 2.57 | 0.972 | 3.16 | 0.551 | – | – | – | – | – | –
13 | COc1ccc2c(c1)C=CC1C2CC[C@]2(C)C(NC(=O)/C=C/c3ccc(O)c(O)c3)CCC12 (stereo partly specified) | – | 56.9 | – | 17.1 | 29 | 10.9 | – | 19.6 | – | 4.06 µM | 12.2 | 3.41
14 | C[C@@H]1Cc2c(ccc3[nH]ncc23)[C@@H](c2ccc(NC3CN(CCCF)C3)cn2)N1CC(F)(F)F | 26.6 | 37.2 | > 100 | 53.1 | 23.2 | 45.7 | 12.4 | 16 | 31.3 | 16.8 µM | < 0.01 | 20.2
15 | Cc1nc2sc(C(=O)Nc3ccccc3)c(N)c2cc1C(=O)c1ccccc1 | > 50 | > 50 | > 50 | 18.1 | > 50 | 12.7 | 5.5 | 1.89 | 2.04 | 0.923 µM | 2.94 | 1.54
16 | N/C(CC(=O)NOC(=O)c1ccccc1)=N/OC(=O)c1ccccc1 | > 100 | 77.6 | > 100 | – | > 100 | – | – | – | – | – | – | –
17 | COC(=O)[C@@H](C)C[C@H](Cc1ccccc1)NC(=O)c1csc([C@@H](C[C@H](C(C)C)N(C)C(=O)[C@@H](NC(=O)[C@H]2CCCCN2C)C(C(F)(F)F)C(F)(F)F)OC(C)=O)n1 | > 16.7 | 0.779 | 13.9 | > 16.7 | – | 0.264 | 0.0437 | 0.054 | 0.0448 | 0.00743 µM | – | 0.0125
18 | O=C(/C=C/c1ccc(Cl)cc1Cl)c1ccc(Cl)cc1Cl | 35.6 | 36.1 | 30.4 | 14.9 | > 72.7 | 1.16 | 13.9 | 16 | 13.5 | 3.33 µM | 24.2 | –
19 | c1ccc(-c2cc3n4c(-c5ccccc5)nn(-c5ccccc5)c4cnc-3n2)cc1 | > 50 | > 50 | > 50 | > 50 | – | > 50 | 4.58 | 48.6 | > 50 | > 50 µM | – | > 50
20 | N=C1C=C(N)C(=O)c2ccccc21 | 0.321 | 0.929 | 1.26 | 0.667 | 0.671 | 0.342 | 0.173 | 0.452 | 0.322 | 0.256 µM | 0.261 | 0.17
21 | CN(C)Cc1cc(C(C)(C)C)cc(CN(C)C)c1O | > 100 | > 100 | > 100 | > 100 | > 100 | > 100 | – | – | – | – | – | –
22 | CS(=O)(=O)CCNCc1ccoc1-c1ccc2ncnc(Nc3ccc(OCc4ccccc4)cc3)c2c1 | > 25 | > 25 | > 25 | > 25 | > 25 | > 25 | > 25 | > 25 | > 25 | > 16.9 µM | 7.86 | > 25
23 | CCOC(=O)N(O)c1ccc(/C=C/c2ccccc2)cc1 | 61.4 | 40 | 36.6 | 28.2 | 8.81 | 28 | 19.5 | 9.38 | 10.6 | 4.1 µM | 0.452 | 7
